Source: patent publication US20140057851A1, “Anti-Angiogenic Gene Therapy With Soluble VEGF Receptors -1, -2 and -3 Together With Paclitaxel Prolongs Survival Of Mice With Human Ovarian Carcinoma” (WKD Holding Oy, priority 2012, published 2014)

How the values were obtained:
[1] = Clinical chemistry: plasma ALT and creatinine; details: mean ± SEM
Excerpt: Plasma samples were collected at 6, 13, 20 and 27 days after the gene transfer and when the mice were sacrificed. Alanine aminotransferase (ALT) and creatinine (Crea) were monitored using routine clinical chemistry assays at Kuopio University Hospital Central Laboratory. Enzyme-linked immunosorbent assays (Quantikine; R&D Systems, Minneapolis, Minn.) were used to detect the presence of human sVEGFRs in plasma samples.
Safety was judged by the assessment of the histological samples of liver, spleen, kidneys and lungs as well as by the analysis of plasma ALT and Crea levels.

[2] = test system: intratumoral microvessels of SKOV-3m tumors; experiment: Microvessel and lymphatic vessel measurements in tumors (CD34, LYVE-1 immunostaining); type: in vivo, Balb/cA-nu female nude mice; details: result in words
Protocol: Photographs of histological sections were taken and processed using an Olympus AX70 microscope (Olympus Optical, Japan), and analySIS (Soft Imaging System, GmbH, Germany) and PhotoShop (Adobe) softwares. Microvessel density (MVD) and total microvascular area (%) of the tumors (TVA) were measured from CD34-immunostained sections using analySIS software at 100× magnification in a blinded manner (FIG. 3b). Six to ten different fields which represented maximum microvessel density areas were selected from each tumor. Necrotic areas were avoided. In addition, the total number of LYVE-1 positive lymphatic vessels per section was counted. Means±SEM of the measurements are reported.

Molecule	ALT ([1]; Day 6 after treatment) [U/l]	Crea ([1]; Day 6 after treatment) [um/l]	ALT ([1]; Day 13 after treatment) [U/l]	Crea ([1]; Day 13 after treatment) [um/l]	effect on angiogenesis by microvessel measurements [2]
N.N.O=C([O-])C1(C(=O)[O-])CCC1.[Pt+2] [Carboplatin]	10.0 ± 1	14.4 ± 3	399 ± 209	4.9 ± 2	
Bevacizumab	12.9 ± 3	7.4 ± 1	56.3 ± 22	12.4 ± 4	did not have any effect
